Experimental data from patent US20110281854A1, “MORPHOLINE COMPOUNDS” (Pfizer Inc, priority 2010, published 2011).

target: T1, MR (Homo sapiens, UniProt P08235); experiment: Cell-based reporter assay (Gal4-MR-LBD luciferase, antagonist mode)
T1 construct: expressed in transfected cells; host or cells: Huh7 human liver cells (ATCC), transient transfection with FuGENE 6
T1 sequence (P08235 726-964 limits assumed): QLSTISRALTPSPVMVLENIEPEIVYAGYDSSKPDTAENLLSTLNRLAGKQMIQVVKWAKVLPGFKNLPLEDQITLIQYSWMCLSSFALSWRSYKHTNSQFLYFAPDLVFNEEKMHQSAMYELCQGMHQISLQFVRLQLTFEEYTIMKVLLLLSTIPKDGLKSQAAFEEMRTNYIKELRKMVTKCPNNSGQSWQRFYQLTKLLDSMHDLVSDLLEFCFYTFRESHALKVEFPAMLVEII
Protocol: To measure the ability of test compound in the present invention to modulate the activity of MR (agonize, antagonize, partially agonize, partially antagonize), bioassays were performed that measured the modulation of reporter gene expression. Cells were transiently transfected with a luciferase reporter gene under the control of a Gal4 response element (Gal4-RE-luc) and a plasmid containing the Gal4 DNA binding domain fused to the MR ligand binding domain (Gal4-MR-LBD). Agonists can bind to and activate the MR-LBD, which activates the expression of the luciferase reporter gene through interaction with the Gal4 response element. […] Antagonists can compete for binding to the NHR-LBD and decrease the agonist-induced transcriptional activity of the reporter gene. Therefore, measurement of luciferase activity allowed quantitative determinations of the reporter transcription in the presence of either agonists or competitive antagonists.
The final concentration of DMSO in the test plate was 0.5%. Following an overnight incubation with compound, 25 μL of Steady-Glow™ lysis buffer with luciferase substrate (Promega Corporation, E2550) was added directly to the cells. After a 30-minute incubation to completely lyse the cells, the microplates were counted in an Envision™ Multilabel Reader (Perkin Elmer) in single photon counting mode.

IC50	Compound
0.272 µM	C[C@H]1CN(c2cc3c(cn2)OCC(=O)N3)[C@@H](c2cccc(F)c2)CO1 (racemic) [Example 50, (±)-7-(cis-5-(3-fluorophenyl)-2-methylmorpholino)-1H-pyrido[3,4-b][1,4]oxazin-2(3H)-one]
7.91 µM	COc1ccccc1[C@H]1CO[C@@H](C)CN1c1cc2c(cn1)OCC(=O)N2 (racemic) [Example 62, (±)-7-(cis-5-(2-methoxyphenyl)-2-methylmorpholino)-1H-pyrido[3,4-b][1,4]oxazin-2(3H)-one]
0.449 µM	C[C@H]1CN(c2ncc3c(n2)NC(=O)CO3)[C@@H](c2ccccc2Cl)CO1 (racemic) [Example 64, (±)-2-(cis-5-(2-chlorophenyl)-2-methylmorpholino)-6H-pyrimido[5,4-b][1,4]oxazin-7(8H)-one]
4.27 µM	Cc1c(NS(C)(=O)=O)cccc1N1C[C@@H](C)OC[C@H]1c1ccccc1 [Example 63, N-(2-methyl-3-((2R,5R)-2-methyl-5-phenylmorpholino)phenyl)methanesulfonamide]
3.42 µM	Cc1ccc(C2(C)CN(c3ccc4c(c3)NC(=O)CO4)CCO2)cc1 (stereo not drawn) [Example 74, 6-(2-methyl-2-p-tolylmorpholino)-2H-benzo[b][1,4]oxazin-3(4H)-one]
2.8 µM	C[C@@H]1CN(c2ccc3c(n2)NC(=O)CO3)C[C@@H](C)O1 [Example 54, 6-((2R,6R)-2,6-dimethylmorpholino)-2H-pyrido[3,2-b][1,4]oxazin-3(4H)-one]
1.63 µM	C[C@@H]1CN(c2ccc3c(c2)NS(=O)(=O)CO3)[C@H](c2ccccc2)CO1 [Example 47, 7-[(2R,5R)-2-methyl-5-phenylmorpholin-4-yl]-1H-4,2,1-benzoxathiazine 2,2-dioxide]
2.28 µM	Cc1nc(N2C[C@@H](C)OC[C@H]2c2ccccc2)nc2c1OCC(=O)N2 [Example 68, 4-methyl-2-((2R,5R)-2-methyl-5-phenylmorpholino)-6H-pyrimido[5,4-b][1,4]oxazin-7(8H)-one]
0.451 µM	C[C@H]1CN(c2ccc3c(n2)NC(=O)CO3)[C@@H](c2ccccc2Cl)CO1 (racemic) [Example 66, (±)-6-(cis-5-(2-chlorophenyl)-2-methylmorpholino)-2H-pyrido[3,2-b][1,4]oxazin-3(4H)-one]
0.349 µM	C[C@@H]1CN(c2ccc3oc(=O)[nH]c3c2)[C@H](c2ccccc2)CO1 [Example 45, 5-((2R,5R)-2-methyl-5-phenylmorpholino)benzo[d]oxazol-2(3H)-one]
8.75 µM	O=C1COc2ccc(N3CCOC4(CCCc5ccccc54)C3)cc2N1 (stereo not drawn) [Example 72, 6-(3′,4′-dihydro-2′H-spiro[morpholine-2,1′-naphthalene]-4-yl)-2H-benzo[b][1,4]oxazin-3(4H)-one]
7.45 µM	CC1(C)OCCN(c2ccc3c(n2)NC(=O)CO3)C1c1ccccc1 (stereo not drawn) [Example 53, 6-(2,2-dimethyl-3-phenylmorpholino)-2H-pyrido[3,2-b][1,4]oxazin-3(4H)-one]

Continued, compound first:

Compound	IC50
O=C1COc2ccc(N3CCO[C@H]4Cc5ccccc5[C@H]43)nc2N1 [Example 20, 6-((4aR,9aS)-2,3,9,9a-tetrahydroindeno[2,1-b][1,4]oxazin-4(4aH)-yl)-2H-pyrido[3,2-b][1,4]oxazin-3(4H)-one]	3 µM
C[C@@H]1CN(c2ccc3ccc(=O)[nH]c3c2)[C@H](c2ccccc2)CO1 [Example 59, 7-((2R,5R)-2-methyl-5-phenylmorpholino)quinolin-2(1H)-one]	0.703 µM
C[C@H]1CN(c2ccc3c(n2)NC(=O)CO3)CCO1 (single isomer, unassigned) [Example 18]	2.71 µM
C[C@H]1CN(c2ncc3c(n2)NC(=O)CO3)[C@@H](c2ccccc2F)CO1 (racemic) [Example 34, (±)-2-(cis-5-(2-fluorophenyl)-2-methylmorpholino)-6H-pyrimido[5,4-b][1,4]oxazin-7(8H)-one]	0.146 µM
C[C@@H]1CN(c2ccc3c(c2)NC(=O)CO3)[C@H](c2ccccc2)CO1 [Example 28, 6-((2R,5R)-2-methyl-5-phenylmorpholino)-2H-benzo[b][1,4]oxazin-3(4H)-one]	0.024 µM
C[C@@H]1CN(c2ncc3c(n2)NC(=O)CO3)[C@H](c2ccccc2)[C@H](C)O1 [Example 42, 2-((2S,3R,6R)-2,6-dimethyl-3-phenylmorpholino)-6H-pyrimido[5,4-b][1,4]oxazin-7(8H)-one]	0.527 µM
C[C@@H]1CN(c2nc3c(cc2F)OCC(=O)N3)[C@H](c2ccccc2)CO1 [Example 37, 7-fluoro-6-((2R,5R)-2-methyl-5-phenylmorpholino)-2H-pyrido[3,2-b][1,4]oxazin-3(4H)-one]	1.44 µM
CC1(C)CN(c2ccc3c(n2)NC(=O)CO3)[C@H](c2ccccc2)CO1 [Example 13, (R)-6-(2,2-dimethyl-5-phenylmorpholino)-2H-pyrido[3,2-b][1,4]oxazin-3(4H)-one]	0.407 µM
O=C1COc2ccc(N3CCOC[C@H]3c3ccc(F)cc3)nc2N1 (single isomer, unassigned) [Example 14]	1.1 µM
O=C1COc2ccc(N3CCOC[C@H]3c3ccccc3)cc2N1 [Example 21, (R)-6-(3-phenylmorpholino)-2H-benzo[b][1,4]oxazin-3(4H)-one]	0.583 µM
CCC1CN(c2ccc3c(n2)NC(=O)CO3)CCO1 (stereo not drawn) [Example 26, 6-(2-ethylmorpholino)-2H-pyrido[3,2-b][1,4]oxazin-3(4H)-one]	3.37 µM
C[C@H]1CN(c2ccc3c(n2)NC(=O)CO3)[C@@H](c2ccccc2F)CO1 (racemic) [Example 7, (±)-6-(cis-5-(2-fluorophenyl)-2-methylmorpholino)-2H-pyrido[3,2-b][1,4]oxazin-3(4H)-one]	0.0636 µM
O=C1COc2ccc(N3CCOC[C@H]3c3ccccc3)nc2N1 [Example 16, (R)-6-(3-phenylmorpholino)-2H-pyrido[3,2-b][1,4]oxazin-3(4H)-one]	1.97 µM
O=C1COc2ccc(N3C[C@@H](C4CC4)OC[C@H]3c3ccccc3)nc2N1 [Example 31, 6-((2R,5R)-2-cyclopropyl-5-phenylmorpholino)-2H-pyrido[3,2-b][1,4]oxazin-3(4H)-one]	0.913 µM
C[C@@H]1CN(c2ccc3c(c2)NC(=O)CS3)[C@H](c2ccccc2)CO1 [Example 4, 6-((2R,5R)-2-methyl-5-phenylmorpholino)-2H-benzo[b][1,4]thiazin-3(4H)-one]	0.306 µM
